From ChEMBL document CHEMBL1201862, “PubChem BioAssay data set” (2004) come the findings set out here.

Test systems include HOP-62; MDA-MB-231; IGROV-1; T47D; SK-MEL-28; KM12; UO-31; LOX IMVI; TK-10; K562; MOLT-4; PC-3; SK-OV-3; 786-0; Hs-578T; NCI-H522; SNB-75; SNB-19; SN12C; M14.
Holding throughout (experiment): NCI anticancer screen, dose series, 48 h

Molecules are shown by their SMILES.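 1) Cells in 96-well plates. 2) Compound, 48 h, 5 concentrations. 3) Linear interpolation between surrounding doses. 4) Unreached endpoint = highest concentration. GI50 is the concentration that inhibits growth by half.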 Calls of active or inactive are those of the source. No stated cut-off is given here; in the data, active = GI50 up to about 1.1 µM and inactive = higher.

As for `O=C1CN2CCN(CC2)CC(=O)Nc2ccc(cc2)S(=O)(=O)c2ccc(cc2)NC(=O)CN2CCN(CC2)CC(=O)Nc2ccc(cc2)S(=O)(=O)c2ccc(cc2)N1`, the GI50 in the assay on HOP-62 was 44.4 µM (inactive); with MDA-MB-231 it was 16.1 µM (inactive); with IGROV-1, 13.8 µM (inactive); with T47D, 67.6 µM (inactive); in the assay on SK-MEL-28 it was 48.4 µM (inactive); in the assay on KM12, 32.2 µM (inactive). Also, the GI50 in the assay on UO-31 was > 92.5 µM (inactive); with LOX IMVI it was 11 µM (inactive); with TK-10 it was > 92.7 µM (inactive); in the assay on K562 it was 15.8 µM (inactive); with MOLT-4 it was 6.81 µM (inactive); with PC-3 it was > 100 µM (inactive). The GI50 in the assay on SK-OV-3 is > 100 µM (inactive); in the assay with 786-0, 33.3 µM (inactive); with Hs-578T, > 100 µM (inactive); with NCI-H522 it was 4.71 µM (inactive); with SNB-75, > 100 µM (inactive); with SNB-19, > 100 µM (inactive). Also, the results for the GI50 in the assay on SN12C and with M14 were > 97.5 µM (inactive) and 25.4 µM (inactive), respectively.
As for `CC(=O)N1CC[N+](C)(CCCCN2c3ccccc3Sc3cc(N=[N+]=[N-])ccc32)CC1`, the GI50 with HOP-62, in the assay with MDA-MB-231, with IGROV-1, in the assay with T47D, in the assay on SK-MEL-28 and in the assay with KM12 was > 100 µM (inactive) each time. In addition, the GI50 with UO-31 was > 100 µM (inactive); with LOX IMVI it was > 100 µM (inactive); in the assay with TK-10, > 100 µM (inactive); in the assay on K562, 49.8 µM (inactive); in the assay on MOLT-4, > 100 µM (inactive); with PC-3, > 100 µM (inactive). Moreover, the GI50 in the assay with SK-OV-3 was > 100 µM (inactive); with 786-0, > 100 µM (inactive); with Hs-578T, 75.9 µM (inactive); in the assay on NCI-H522, > 100 µM (inactive); with SNB-75, > 100 µM (inactive); in the assay on SNB-19, > 100 µM (inactive). Also, the GI50 in the assay on SN12C and in the assay with M14 was > 100 µM (inactive) throughout.
As to `O=C1C=CC2CCC1C2` (stereo not given), the GI50 in the assay with HOP-62 was 43.1 µM (inactive); in the assay with MDA-MB-231, 28.6 µM (inactive); in the assay on IGROV-1, 53.3 µM (inactive); in the assay with T47D, 19.9 µM (inactive); in the assay with SK-MEL-28, 23.5 µM (inactive); with KM12 it was 32.4 µM (inactive). For the same compound, the GI50 was 31.2 µM (inactive) in the assay with UO-31; 29.4 µM (inactive) in the assay on LOX IMVI; 66.1 µM (inactive) with TK-10; 27.4 µM (inactive) in the assay on K562; 26.4 µM (inactive) in the assay on MOLT-4; 45 µM (inactive) in the assay with PC-3. Also, the GI50 with SK-OV-3 was 24.4 µM (inactive); in the assay with 786-0 it was 40.9 µM (inactive); in the assay on Hs-578T, 28.6 µM (inactive); in the assay with NCI-H522 it was 17.7 µM (inactive); in the assay with SNB-75, 27.5 µM (inactive); in the assay with SNB-19, 28.4 µM (inactive). Also, the GI50 is 30.4 µM (inactive) in the assay on SN12C and 27.4 µM (inactive) with M14.
As to `C=C(C(=O)OCC)C(=O)OCC`, the GI50 in the assay with HOP-62, with MDA-MB-231, with IGROV-1, with T47D, in the assay with SK-MEL-28 and in the assay on KM12 was > 100 µM (inactive) throughout. Moreover, the GI50 in the assay on UO-31, in the assay on LOX IMVI, in the assay on TK-10, in the assay with K562, in the assay on MOLT-4 and in the assay on PC-3 was > 100 µM (inactive) throughout. The GI50 in the assay with SK-OV-3, with 786-0, in the assay with Hs-578T, in the assay with NCI-H522, in the assay on SNB-75 and in the assay with SNB-19 was > 100 µM (inactive) each time. In addition, the GI50 in the assay on SN12C and in the assay with M14 was > 100 µM (inactive) throughout.
Take `O=c1[nH]nc(-c2ccccc2)c2[nH]c3c(c12)Cc1ccccc1-3`: the GI50 was 9.38 µM (inactive) with HOP-62; 0.378 µM (active) with MDA-MB-231; 0.723 µM (active) in the assay with IGROV-1; > 100 µM (inactive) with T47D; 6.01 µM (inactive) with SK-MEL-28; < 0.0306 µM (active) in the assay on KM12. Besides, the GI50 in the assay with UO-31 is 5.41 µM (inactive); in the assay with LOX IMVI, 6.11 µM (inactive); in the assay on TK-10, 7.59 µM (inactive); with K562, 0.839 µM (active); with MOLT-4, 1.19 µM (inactive); in the assay on PC-3, 4.47 µM (inactive). The GI50 with SK-OV-3 is 6.68 µM (inactive); in the assay on 786-0, 4.8 µM (inactive); in the assay on Hs-578T, 5.46 µM (inactive); in the assay on NCI-H522, 0.295 µM (active); in the assay with SNB-75, 3.28 µM (inactive); with SNB-19, 7.06 µM (inactive). The GI50 in the assay on SN12C was 2.32 µM (inactive); with M14, 4.06 µM (inactive).
Take `C=C(C)[C@@H]1CC[C@]2(C(=O)O)CC[C@]3(C)[C@H](CC[C@@H]4[C@@]5(C)CC[C@H](C(=O)/C=C/c6ccc(O)cc6)C(C)(C)[C@@H]5CC[C@]43C)[C@@H]12`: the GI50 with HOP-62 is 8.39 µM (inactive); in the assay on MDA-MB-231, 6.65 µM (inactive); in the assay with IGROV-1 it was 8.17 µM (inactive); in the assay on T47D it was 4.58 µM (inactive); in the assay on SK-MEL-28, 11.9 µM (inactive); with KM12, 3.29 µM (inactive). In addition, the GI50 in the assay on UO-31 was 5.2 µM (inactive); with LOX IMVI it was 3.54 µM (inactive); in the assay on TK-10, 7.82 µM (inactive); in the assay on K562, 3.11 µM (inactive); in the assay on MOLT-4 it was 2.85 µM (inactive); in the assay on PC-3 it was 5.98 µM (inactive). Besides, the GI50 in the assay with SK-OV-3 is 6.15 µM (inactive); with 786-0 it was 4.92 µM (inactive); in the assay on Hs-578T, 4.75 µM (inactive); in the assay with NCI-H522, 3.41 µM (inactive); in the assay with SNB-75, > 10 µM (inactive); in the assay with SNB-19, 6.92 µM (inactive). Besides, the GI50 with SN12C was 3.05 µM (inactive); in the assay on M14, 7.13 µM (inactive).
For `Cc1cc(NC(=O)NC(=O)c2ccccc2N(C)C)ccc1Oc1ncc(Br)cn1`, the GI50 in the assay on HOP-62 is 0.659 µM (active); in the assay with MDA-MB-231 it was 1.45 µM (inactive); with IGROV-1, 1.46 µM (inactive); in the assay on T47D, 1.61 µM (inactive); in the assay on SK-MEL-28, 0.64 µM (active); in the assay on KM12 it was 0.359 µM (active). The GI50 in the assay on UO-31 is 2.04 µM (inactive); with LOX IMVI it was 0.369 µM (active); in the assay with TK-10, 4.51 µM (inactive); in the assay with K562, 0.119 µM (active); in the assay on MOLT-4, 1.08 µM (active); in the assay with PC-3, 0.333 µM (active). For the same compound, the GI50 in the assay on SK-OV-3 is 0.437 µM (active); in the assay on 786-0 it was 0.425 µM (active); in the assay with Hs-578T, 0.267 µM (active); with NCI-H522 it was 0.21 µM (active); in the assay on SNB-75, 0.135 µM (active); with SNB-19, 0.532 µM (active). Also, the results for the GI50 in the assay on SN12C and in the assay on M14 were 1.74 µM (inactive) and 0.957 µM (active), respectively.
